System: not given
Test: not given
Details: not given
`COC(=O)c1ccc2c(c1)NC(=O)/C2=C(\Nc1ccc(Cc2ccccc2)cc1)c1ccccc1` [Example 3(60), 3-Z-[1-(4-benzyl-anilino)-1-phenyl-methylene]-6-methoxycarbonyl-2-indolinone] gave a melting point of 224 °C.

System: Human umbilical endothelial cells (HUVEC)
Test: Inhibition of VEGF165-stimulated HUVEC proliferation (3H-thymidine incorporation)
Assay type: cell-based
Details: HUVEC starved 16 hours, stimulated with 5 ng/ml VEGF165 and 10 μg/ml heparin, 76 hours incubation, then 16 hours 3H-thymidine
Experimental: Human umbilical endothelial cells (HUVEC) were cultivated in IMDM (Gibco BRL), supplemented with 10% foetal calf serum (FBS) (Sigma), 50 μM of β-mercaptoethanol (Fluka), standard antibiotics, 15 μg/ml of endothelial cell growth factor (ECGS, Collaborative Biomedical Products) and 100 μg/ml of heparin (Sigma) on gelatine-coated culture dishes (0.2% gelatine, Sigma) at 37° C., under 5% CO2 in a water-saturated atmosphere.
In order to investigate the inhibitory activity of the compounds according to the invention the cells were starved for 16 hours, i.e. kept in culture medium without growth factors (ECGS+heparin). The cells were detached from the culture dishes using trypsin/EDTA and washed once in serumontaining medium. Then they were seeded out in amounts of 2.5×10^3 cells per well.
The proliferation of the cells was stimulated with 5 ng/ml of VEGF165 (vascular endothelial growth factor; H. Weich, GBF Braunschweig) and 10 μg/ml of heparin. As a control, 6 wells in each dish were not stimulated.
The compounds according to the invention were dissolved in 100% dimethylsulphoxide and added to the cultures in various dilutions in triplicate, the maximum dimethyl sulphoxide concentration being 0.3%.
The cells were incubated for 76 hours at 37° C., then for a further 16 hours ^3H-thymidine (0.1 μCi/well, Amersham) was added in order to determine the DNA synthesis. Then the radioactively labelled cells were immnobilised on filter mats and the radioactivity incorporated was measured in a β-counter. In order to determine the inhibitory activity of the compounds according to the invention the mean value of the non-stimulated cells was subtracted from the mean value of the factor-stimulated cells (in the presence or absence of the compounds according to the invention).
The relative cell proliferation was calculated as a percentage of the control (HUVEC without inhibitor) and the concentration of active substance which inhibits the proliferation of the cells by 50% (IC50) was determined.
`CCOC(=O)c1ccc2c(c1)NC(=O)/C2=C(\Nc1ccc(N(CCN(C)C)C(C)=O)cc1)c1ccccc1` [(f), 3-Z-[1-(4-(N-(2-dimethylamino-ethyl)-N-acetyl-amino)-anilino)-1-phenyl-methylene]-6-ethoxycarbonyl-2-indolinone] showed an IC50 of 10 nM.
In the case of `COC(=O)c1ccc2c(c1)NC(=O)/C2=C(\Nc1ccc(N(C)C(=O)CN(C)C)cc1)c1ccccc1` [(m), 3-Z-[1-(4-(N-dimethylaminomethylcarbonyl-N-methyl-amino)-anilino)-1-phenyl-methylene]-6-methoxycarbonyl-2-indolinone], the IC50 is reported as 20 nM.
For `COC(=O)c1ccc2c(c1)NC(=O)/C2=C(\Nc1ccc(N(C)C(=O)CCN(C)C)cc1)c1ccccc1` [(q), 3-Z-[1-(4-(N-((2-dimethylamino-ethyl)-carbonyl)-N-methyl-amino)-anilino)-1-phenyl-methylene]-6-methoxycarbonyl-2-indolinone], the IC50 was 20 nM.
Work on `COC(=O)c1ccc2c(c1)NC(=O)/C2=C(\Nc1ccc(N(CCN(C)C)C(C)=O)cc1)c1ccccc1` [(r), 3-Z-[1-(4-(N-(2-dimethylamino-ethyl)-N-acetyl-amino)-anilino)-1-phenyl-methylene]-6-methoxycarbonyl-2-indolinone] yielded an IC50 of 10 nM.
`COC(=O)c1ccc2c(c1)NC(=O)/C2=C(\Nc1ccc(N(CC(=O)N(C)C)S(C)(=O)=O)cc1)c1ccccc1` [(p), 3-Z-[1-(4-(N-dimethylaminocarbonylmethyl-N-methylsulphonyl-amino)-anilino)-1-phenyl-methylene]-6-methoxycarbonyl-2-indolinone] showed an IC50 of 20 nM.
For `NC(=O)c1ccc2c(c1)NC(=O)/C2=C(\Nc1ccc(CN2CCCCC2)cc1)c1ccccc1` [(b), 3-Z-[1-(4-(piperidin-1-yl-methyl)-anilino)-1-phenyl-methylene]-6-carbamoyl-2-indolinone], the IC50 was 350 nM.
Work on `COC(=O)c1ccc2c(c1)NC(=O)/C2=C(\Nc1ccc(CN(C)C)cc1)c1ccccc1` [(i), 3-Z-[1-(4-(dimethylaminomethyl)-anilino)-1-phenyl-methylene]-6-methoxycarbonyl-2-indolinone] yielded an IC50 of 30 nM.
With `CCOC(=O)c1ccc2c(c1)NC(=O)/C2=C(\Nc1ccc(CN2C(C)CCCC2C)cc1)c1ccccc1` (centres unmarked) [(e), 3-Z-[1-(4-((2,6-dimethyl-piperidin-1-yl)-methyl)-anilino)-1-phenyl-methylene]-6-ethoxycarbonyl-2-indolinone] the IC50 was 50 nM.
In the case of `CCOC(=O)c1ccc2c(c1)NC(=O)/C2=C(\Nc1ccc(CN(C)C)cc1)c1ccccc1` [(d), 3-Z-[1-(4-(dimethylaminomethyl)-anilino)-1-phenyl-methylene]-6-ethoxycarbonyl-2-indolinone], the IC50 is reported as 20 nM.
`COC(=O)c1ccc2c(c1)NC(=O)/C2=C(\Nc1ccc(CN2CCCCC2)cc1)c1ccccc1` [(c), 3-Z-[1-(4-(piperidin-1-yl-methyl)-anilino)-1-phenyl-methylene]-6-methoxycarbonyl-2-indolinone] showed an IC50 of 10 nM.
With `COC(=O)c1ccc2c(c1)NC(=O)/C2=C(\Nc1ccc(N(CCCN(C)C)S(C)(=O)=O)cc1)c1ccccc1` [(o), 3-Z-[1-(4-(N-(3-dimethylamino-propyl)-N-methylsulphonyl-amino)-anilino)-1-phenyl-methylene]-6methoxycarbonyl-2-indolinone] the IC50 was 10 nM.
For `CNCc1ccc(N/C(=C2\C(=O)Nc3cc(C(=O)OC)ccc32)c2ccccc2)cc1` [(s), 3-Z-[1-(4methylaminomethyl-anilino)-1-phenyl-methylene]-6-methoxycarbonyl-2-indolinone], the IC50 was 40 nM.
`COC(=O)c1ccc2c(c1)NC(=O)/C2=C(\Nc1ccc(N(CC(=O)N(C)C)C(C)=O)cc1)c1ccccc1` [(j), 3-Z-[1-(4-(N-acetyl-N-dimethylaminocarbonylmethyl-amino)-anilino)-1-phenyl-methylene]-6-methoxycarbonyl-2-indolinone] showed an IC50 of 20 nM.
In the case of `CCOC(=O)c1ccc2c(c1)NC(=O)/C2=C(\Nc1ccc(CN2CCCCC2)cc1)c1ccccc1` [(a), 3-Z-[1-(4-(piperidin-1-yl-methyl)-anilino)-1-phenyl-methylene]-6-ethoxycarbonyl-2-indolinone], the IC50 is reported as 40 nM.
For `CCOC(=O)c1ccc2c(c1)NC(=O)/C2=C(\Nc1ccc(N(CCCN(C)C)C(C)=O)cc1)c1ccccc1` [(g), 3-Z-[1-(4-(N-(3-dimethylamino-propyl)-N-acetyl-amino)-anilino)-1-phenyl-methylene]-6-ethoxycarbonyl-2-indolinone], the IC50 was 3 nM.
In the case of `CCOC(=O)c1ccc2c(c1)NC(=O)/C2=C(\Nc1ccc(N(CCN(C)C)S(C)(=O)=O)cc1)c1ccccc1` [(h), 3-Z-[1-(4-(N-(2-dimethylamino-ethyl)-N-methylsulphonyl-amino)-anilino)-1-phenyl-methylene]-6-ethoxycarbonyl-2-indolinone], the IC50 is reported as 10 nM.
`COC(=O)c1ccc2c(c1)NC(=O)/C2=C(\Nc1ccc(N(CCN(C)C)S(C)(=O)=O)cc1)c1ccccc1` [(n), 3-Z-[1-(4-(N-(2-dimethylamino-ethyl)-N-methylsulphonyl-amino)-anilino)-1-phenyl-methylene]-6-methoxycarbonyl-2-indolinone] showed an IC50 of 20 nM.
`COC(=O)c1ccc2c(c1)NC(=O)/C2=C(\Nc1ccc(-c2nccn2C)cc1)c1ccccc1` [(l), 3-Z-[1-(4-(1-methyl-imidazol-2-yl)-anilino)-1-phenyl-methylene]-6-methoxycarbonyl-2-indolinone] gave an IC50 of 100 nM.
Compound `CCNCc1ccc(N/C(=C2\C(=O)Nc3cc(C(=O)OC)ccc32)c2ccccc2)cc1` [(k), 3-Z-[1-(4-ethylaminomethyl-anilino)-1-phenyl-methylene]-6methoxycarbonyl-2-indolinone] has an IC50 of 30 nM.
